For one experiment, the system named is Rat white adipocytes. The experiment can be described thus: Stimulation of differentiation of the adipocytes (Oil Red O). The conditions noted are these: 100 nM test compound, 5 days, Oil Red O ABS550, control = 100%, blank = 0%, Table 7; for activity at 0.1 µM: Rattus norvegicus, Adipocyte, 120 h, read-out: Rate of Differentiation (%). Type of experiment: cell-based. In short, it runs like this:
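Rat white adipocytes, 5,000 cells/well, cultured 5 days in differentiation-inducing medium with test compound at final 100 nM (0.1% DMSO). Cells fixed, stained with Oil Red O, dye extracted in DMSO and read at 550 nm; differentiation rate expressed relative to vehicle control (100%) and cell-free blank (0%).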

Another experiment concerns TNF-α production. The experiment is described as follows: Inhibitory activity against cytokine (TNF-α) production in LPS-stimulated RAW264.7 cells. Type of experiment: cell-based, mouse. The conditions noted are these: 1 μM test compound, LPS 10 ng/mL; for inhibition at 1 µM: Mus musculus, RAW264.7, 15 h. In short, it runs like this:
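Mouse RAW264.7 macrophages (5,000 cells/well) stimulated with 10 ng/mL LPS (final) and treated with test compound at 1 μM final for 15 h at 37 °C. Supernatant mouse TNF-α measured by ELISA; % inhibition = 100−(A−B)/(C−B)×100, using unstimulated and LPS-only controls.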

By inhibition is commonly meant the share of the control response that was lost under treatment. Read a low inhibition as a response near the control. Turning to `Cc1csc(NC(=O)c2cc([N+](=O)[O-])ccc2Cl)n1` [Example 3, N-(4-Methylthiazol-2-yl)-(2-chloro-5-nitrophenyl)carboxamide], in the experiment with Rat white adipocytes, the activity at 0.1 µM worked out at 126%. In the experiment on TNF-α production, this compound registered an inhibition at 1 µM of 17%.

For the compound `O=C(Nc1nc2ccc(Cc3ccc(F)cc3)cc2s1)c1cc([N+](=O)[O-])ccc1Cl` [Example 90, N-[6-(4-Fluorobenzyl)benzothiazol-2-yl]-(2-chloro-5-nitrophenyl)carboxamide], in the experiment on Rat white adipocytes, the activity at 0.1 µM amounted to 131%. For the same compound, in the experiment on TNF-α production, testing at 1 µM gave an inhibition of 19.4%.

For `O=C(Nc1ccc(-c2ccc(O)cc2)cc1)c1cc([N+](=O)[O-])ccc1Cl` [Example 135, N-[4-(4-Hydroxyphenyl)phenyl]-2-(chloro-5-nitrophenyl)carboxamide], the “Rate of Differentiation (%)” value with Rat white adipocytes is 128.0%. For the same compound, the “Inhibitory Activity (%) against TNF-α production” value in the experiment with TNF-α production (15 hr) turned out to be 16.6%.

The values are drawn from patent publication US20030134859A1 (SANKYO COMPANY, LIMITED, priority 2000, published 2003).
